Reference: patent US7452691B2, “Device and method for detecting antibiotic inactivating enzymes” (priority 2005, dated 2008)
In brackets after ≈: the same amount, converted by molar mass. Like-named read-outs stand apart in the source and are kept apart here.

Key:
L-1 = L-1 (Stenotrophomonas maltophilia, UniProt P52700); assay: Indirect reagent disk test, antibiotic inactivation; assay type: cell-based; conditions: enzyme L-1; indirect method; note: key: P, positive; N, negative; WP, weak positive (slight flattening); ?, results were questionable
Source text: (§1) • 1. […] Performing and Interpreting the Test • 1.

E. coli V1104 = assay: Spectrophotometric hydrolysis assay of β-lactamase released by permeabilizing agent, nitrocefin as substrate; assay type: cell-based
Method: (§2) H., et al., A.A.C. 1:283-288 (1972). […] The nitrocefin was prewarmed to 37° C.
The experiment in Example 1 was repeated using E. coli V1104 to evaluate a variety of permeabilizing agents. Nitrocefan was the hydrolysis substrate.

OXA-6 = assay: Indirect reagent disk test, antibiotic inactivation; assay type: cell-based; conditions: enzyme OXA-6; indirect method
Method: (§3) The indirect method was performed essentially as described in Example 4, except the antibiotic disks were as indicated. An indentation of a zone of inhibition around the antibiotic dish was interpreted as positive for presence of antibiotic-inactivating factor.

FOX-1 = assay: as above; assay type: cell-based; conditions: enzyme FOX-1; indirect method
Source text: (§4) A solution of equal parts of physiological saline and Tris EDTA (Sigma Chemicals) is made. • 2. A 20 microliter aliquot of the permeabilizing agent solution was placed onto a filter paper disk and allowed to dry. […] The filter paper disk impregnated with the permeabilizing agent was rehydrated with 20 microliters of sterile physiological saline. • 2. Using a cotton swab or loop, a test organism was rubbed onto the rehydrated disk. • 3. A Mueller Hinton Agar plate was inoculated with a 0.5 McFarland of E. coli ATCC 25922. • 4. A cefoxitin disk was placed onto the surface of the agar plate. The rehydrated disk inoculated with the test organism next was placed next to the cefoxitin disk, at a distance of about 0.5-1.0 mm. • 5. The agar plate was incubated at 37° C. for about 16 hours, or overnight. • 6. Distortion of the cefoxitin zone was interpreted as a positive result (i.e., the presence of an antibiotic-inactivating factor was detected), whereas lack of distortion of the cefoxitin zone was interpreted as a negative result.
as §3

ACT-1 = assay: as above; assay type: cell-based; conditions: enzyme ACT-1; indirect method
PSE-1 = PSE-1 (Pseudomonas aeruginosa, UniProt Q03170); assay: as above; assay type: cell-based; conditions: enzyme PSE-1; indirect method
Source text: as §1

LAT-1 = assay: as above; assay type: cell-based; conditions: enzyme LAT-1; indirect method; note: key: P, positive; N, negative; WP, weak positive (slight flattening); ?, results were questionable
Source text: as §1

SHV-1 = SHV-1 (Klebsiella pneumoniae, UniProt P0AD64); assay: as above; assay type: cell-based; conditions: enzyme SHV-1; indirect method
Source text: as §4, §3

AmpC = conditions: enzyme AmpC; indirect method
Source text: as §4
(§5) An indentation of a zone of inhibition around the antibiotic dish was interpreted as positive for presence of antibiotic-inactivating factor.

OXA-4 = assay: Indirect reagent disk test, antibiotic inactivation; assay type: cell-based; conditions: enzyme OXA-4; indirect method
Method: as §3

OXA-5 = OXA-5 (Pseudomonas aeruginosa, UniProt Q00982); assay: as above; assay type: cell-based; conditions: enzyme OXA-5; indirect method
Method: as §3

OXA-3 = OXA-3 (Pseudomonas aeruginosa, UniProt Q51429); assay: as above; assay type: cell-based; conditions: enzyme OXA-3; indirect method
Source text: as §4, §3

OXA-2 = OXA-2 (Escherichia coli, UniProt P0A1V9); assay: as above; assay type: cell-based; conditions: enzyme OXA-2; indirect method
Method: as §3

TEM-46 = assay type: cell-based; conditions: enzyme TEM-46; indirect method
Method: as §3

OXA-7 = OXA-7 (Escherichia coli, UniProt P35695); assay: Indirect reagent disk test, antibiotic inactivation; assay type: cell-based; conditions: enzyme OXA-7; indirect method
Source text: as §4, §5

Class A Carbapenemases = assay: Indirect TE disk test for detection of Class A Carbapenemases; assay type: cell-based; conditions: for CACs detected by indirect TE disk test: 21 CAC-producing strains, E. coli ATCC 25922 lawn; for False positive results in indirect TE disk test: strains producing non-CAC enzymes (metallo/OXA carbapenemases, AmpC, ESBLs)
Method: Methods: 21 strains that produced Class A Carbapenemases (“CACs”) comprising 12 Klebsiella pneumoniae, 5 Enterobacter cloacae, 2 Escherichia coli, and 2 Serratia marcescens; 10 strains of Acinetobacter baumannii, Pseudomonas aeruginosa, and S. marcescens that produced either a metallo-beta-lactamase or an OXA carbapenemases, and 11 strains of Enterobacteriaceae that produced either AmpC β-lactamases or ESBLs were investigated. The test was performed essentially as described in Example 5, with any changes noted below. The indirect test involved inoculation of the surface of a Mueller-Hinton (MH) agar plate with a lawn of E. coli ATCC 25922, not the test organism. Immediately prior to incubation, a premoistened TE disk was inoculated with several colonies of the test organism and placed face down on the MH agar adjacent to a disk containing one of the carbapenems, imipenem (IPM), meropenem (MER), or ertapenem (ERT). After overnight incubation, an indentation of the zone inhibition was interpreted as positive.

Klebsiella spp. isolates = assay: Antimicrobial susceptibility by NCCLS microdilution (MIC); assay type: cell-based
Method: Thirty recent isolates of Klebsiella spp. were collected from patients in United States hospitals.
Antimicrobial susceptibility was determined by NCCLS microdilution methodology using an investigational Microscan dehydrated panel.

SHV-4 = SHV-4 (Klebsiella pneumoniae, UniProt P37323); assay: Indirect reagent disk test, antibiotic inactivation; assay type: cell-based; conditions: enzyme SHV-4; indirect method
Source text: as §4, §3

SHV-2 = SHV-2 (Escherichia coli, UniProt P0A9Z7); assay: as above; assay type: cell-based; conditions: enzyme SHV-2; indirect method
Source text: as §4, §3

[1] = system: E. coli MISC 208 (which produces the extended spectrum β-lactamase SHV-2); conditions: 0° C.
Method: In this Example, E. coli MISC 208 (which produces the extended spectrum β-lactamase SHV-2) was used as a test organism and nitrocefin was the substrate in spectrophotometric hydrolysis assays. The E. coli strain was harvested directly into 100 microliters of Mueller Hinton Broth and mixed with 100 microliters of the permeabilizing agent.
In the hydrolysis assay, units of activity are calculated as:
Briefly, a 100 μM solution of nitrocefin was used as a substrate. The nitrocefin was prewarmed to 37° C. The hydrolysis assay was performed at 37° C. at a wavelength of 389.5 with an extinction coefficient of −0.024. An appropriate cuvette was filled with 0.9 ml of the prewarmed nitrocefin substrate and 100 ul of permeabilized bacterial suspension was added. The contents of the cuvette were immediately mixed by inversion and the cuvette was placed in a spectrophotometer. Absorbance was assayed at 5-second intervals for up to 5 minutes with the 37° C. temperature maintained by means of a circulating water bath that warmed the cuvette block. When the assay was complete, the activity was calculated according to the above formula.

[2] = system: β-lactamases of Klebsiella isolates (AmpC); assay: Isoelectric focusing with inhibitor overlays; assay type: biochemical, Klebsiella spp.; conditions: nine of ten positive Klebsiella isolates; 1000 μM overlay
Method: Crude sonicates were subjected to analytical isoelectric focusing (IEF) on an ampholine polyacrylamide gel (pH range 3.5-9.5) on a flatbed apparatus (Multiphor LKB). Inhibitor overlays of the IEF gel were performed with 1000 μM clavulanic acid and cloxacillin.

E. coli MISC 208 = assay: Spectrophotometric hydrolysis assay of β-lactamase released by permeabilizing agent, cefaclor as substrate; assay type: cell-based
Method: as §2
The experiment in Example 1 was repeated using E. coli MISC 208 and cefaclor as substrate in the hydrolysis assays.

PSE-1, sequence (Q03170 18-288): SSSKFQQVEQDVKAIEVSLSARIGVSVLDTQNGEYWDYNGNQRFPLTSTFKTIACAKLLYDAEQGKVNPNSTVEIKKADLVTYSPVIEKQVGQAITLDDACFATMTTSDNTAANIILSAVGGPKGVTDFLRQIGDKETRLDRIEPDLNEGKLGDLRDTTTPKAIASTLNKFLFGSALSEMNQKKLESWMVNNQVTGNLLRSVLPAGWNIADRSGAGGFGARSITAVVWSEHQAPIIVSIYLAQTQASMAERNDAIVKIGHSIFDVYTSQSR
OXA-3, sequence (Q51429 22-275): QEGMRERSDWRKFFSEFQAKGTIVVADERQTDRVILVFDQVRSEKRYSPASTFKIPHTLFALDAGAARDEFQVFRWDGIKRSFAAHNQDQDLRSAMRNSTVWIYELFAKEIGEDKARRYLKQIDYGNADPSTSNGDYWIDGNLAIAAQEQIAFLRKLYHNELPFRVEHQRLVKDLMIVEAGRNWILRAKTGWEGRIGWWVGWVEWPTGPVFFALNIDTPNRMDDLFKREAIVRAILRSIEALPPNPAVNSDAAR
OXA-2, sequence (P0A1V9 22-275): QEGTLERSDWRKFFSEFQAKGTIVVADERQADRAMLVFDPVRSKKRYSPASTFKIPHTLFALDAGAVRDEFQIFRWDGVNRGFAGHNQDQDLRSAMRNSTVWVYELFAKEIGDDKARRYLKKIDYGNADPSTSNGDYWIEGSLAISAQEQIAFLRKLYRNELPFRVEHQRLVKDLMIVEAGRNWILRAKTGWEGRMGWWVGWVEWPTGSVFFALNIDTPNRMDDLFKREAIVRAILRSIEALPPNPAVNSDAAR
SHV-1, sequence (P0AD64 22-286): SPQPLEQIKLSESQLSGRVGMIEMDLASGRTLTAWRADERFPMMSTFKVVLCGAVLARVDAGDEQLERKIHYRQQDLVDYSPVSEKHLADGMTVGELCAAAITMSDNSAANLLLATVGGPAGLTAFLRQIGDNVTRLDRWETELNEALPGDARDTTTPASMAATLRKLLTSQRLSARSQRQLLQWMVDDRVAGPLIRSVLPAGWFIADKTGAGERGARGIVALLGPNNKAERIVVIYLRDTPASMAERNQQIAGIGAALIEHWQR
L-1, sequence (P52700 34-290): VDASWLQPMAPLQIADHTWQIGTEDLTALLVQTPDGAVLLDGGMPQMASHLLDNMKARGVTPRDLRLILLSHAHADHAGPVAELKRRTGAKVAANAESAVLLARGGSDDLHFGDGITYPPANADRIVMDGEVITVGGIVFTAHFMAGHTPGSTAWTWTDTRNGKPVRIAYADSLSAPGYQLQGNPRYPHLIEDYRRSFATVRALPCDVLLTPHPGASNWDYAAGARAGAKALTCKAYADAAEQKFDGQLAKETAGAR
OXA-5, sequence (Q00982 20-267): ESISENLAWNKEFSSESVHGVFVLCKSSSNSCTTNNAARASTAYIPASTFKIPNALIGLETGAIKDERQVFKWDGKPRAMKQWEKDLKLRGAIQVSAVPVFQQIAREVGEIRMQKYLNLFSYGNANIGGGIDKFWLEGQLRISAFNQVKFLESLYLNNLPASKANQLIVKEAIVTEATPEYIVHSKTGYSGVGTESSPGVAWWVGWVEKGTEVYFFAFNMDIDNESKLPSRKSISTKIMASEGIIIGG
SHV-2, sequence (P0A9Z7 22-286): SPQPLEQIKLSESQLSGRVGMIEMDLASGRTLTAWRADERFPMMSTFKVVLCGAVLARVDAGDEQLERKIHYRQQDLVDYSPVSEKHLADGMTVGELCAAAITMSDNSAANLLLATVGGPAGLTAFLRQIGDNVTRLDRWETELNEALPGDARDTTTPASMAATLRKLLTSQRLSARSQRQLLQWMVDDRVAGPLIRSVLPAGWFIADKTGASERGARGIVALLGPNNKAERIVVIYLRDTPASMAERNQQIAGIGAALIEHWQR
SHV-4, sequence (P37323 whole entry): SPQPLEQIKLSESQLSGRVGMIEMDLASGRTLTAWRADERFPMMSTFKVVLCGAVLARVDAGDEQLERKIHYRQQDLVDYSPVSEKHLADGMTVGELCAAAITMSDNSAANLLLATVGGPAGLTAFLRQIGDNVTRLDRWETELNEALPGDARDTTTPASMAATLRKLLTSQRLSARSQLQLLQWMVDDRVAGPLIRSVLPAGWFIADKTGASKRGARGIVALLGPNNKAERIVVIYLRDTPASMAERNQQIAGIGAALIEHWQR
OXA-7, sequence (P35695 21-266): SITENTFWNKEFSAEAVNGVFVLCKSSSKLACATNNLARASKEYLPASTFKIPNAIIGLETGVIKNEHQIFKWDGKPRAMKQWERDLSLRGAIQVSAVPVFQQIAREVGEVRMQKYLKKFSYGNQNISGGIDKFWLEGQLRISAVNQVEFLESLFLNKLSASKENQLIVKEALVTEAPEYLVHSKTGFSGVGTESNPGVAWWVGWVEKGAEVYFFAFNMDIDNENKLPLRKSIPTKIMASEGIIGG

| Molecule | Reagent disk test result (indentation of inhibition zone = antibiotic inactivation) (L-1) | Reagent disk test result (indentation of inhibition zone = antibiotic inactivation) (OXA-6) | Reagent disk test result (indentation of inhibition zone = antibiotic inactivation) (PSE-1) | Reagent disk test result (indentation of inhibition zone = antibiotic inactivation) (OXA-4) | Reagent disk test result (indentation of inhibition zone = antibiotic inactivation) (OXA-5) | Reagent disk test result (indentation of inhibition zone = antibiotic inactivation) (OXA-3) | Reagent disk test result (indentation of inhibition zone = antibiotic inactivation) (OXA-2) | Reagent disk test result (indentation of inhibition zone = antibiotic inactivation) (TEM-46) | also measured |
| --- | --- | --- | --- | --- | --- | --- | --- | --- | --- |
| CC1(C)S[C@@H]2[C@H](NC(=O)[C@H](N)c3ccccc3)C(=O)N2[C@H]1C(=O)O [AM, ampicillin] | N |  |  |  |  |  |  |  |  |
| C[C@H]1[C@H](NC(=O)/C(=N\OC(C)(C)C(=O)O)c2csc(N)n2)C(=O)N1S(=O)(=O)O [Aztreonam, aztreonam] | N | N | N | N | N | N | N |  | Units of β-lactamase Activity (Nitrocefin as substrate) (E. coli V1104): 210; Reagent disk test result (indentation of inhibition zone = antibiotic inactivation) (FOX-1): N; Reagent disk test result (indentation of inhibition zone = antibiotic inactivation) (ACT-1): N; Reagent disk test result (indentation of inhibition zone = antibiotic inactivation) (LAT-1): N; Reagent disk test result (indentation of inhibition zone = antibiotic inactivation) (SHV-1): N; Reagent disk test result (indentation of inhibition zone = antibiotic inactivation) (AmpC): N |
| CO[C@@]1(NC(=O)CSCC#N)C(=O)N2C(C(=O)O)=C(CSc3nnnn3C)CS[C@@H]21 [CMZ, cefmetazole] |  |  | P^m |  |  |  |  | N |  |
| CO/N=C(\C(=O)N[C@@H]1C(=O)N2C(C(=O)O)=C(CSc3nc(=O)c(O)nn3C)CS[C@H]12)c1csc(N)n1 [CRO, ceftriaxone] | N |  | N | N | N | N | N |  |  |
| CO/N=C(\C(=O)N[C@@H]1C(=O)N2C(C(=O)O)=C(COC(C)=O)CS[C@H]12)c1csc(N)n1 [CTX, cefotaxime] | N | WP? | N |  | N | N | N | N |  |
| CC(C)(O/N=C(\C(=O)N[C@@H]1C(=O)N2C(C(=O)[O-])=C(C[n+]3ccccc3)CS[C@H]12)c1csc(N)n1)C(=O)O [Ceftazidime, ceftazidime] | N | N | N | N | N | N | N |  | Units of β-lactamase Activity (Nitrocefin as substrate) (E. coli V1104): 196; Reagent disk test result (indentation of inhibition zone = antibiotic inactivation) (FOX-1): N; Reagent disk test result (indentation of inhibition zone = antibiotic inactivation) (SHV-1): N; Reagent disk test result (indentation of inhibition zone = antibiotic inactivation) (OXA-7): N |
| C[C@@H](O)[C@H]1C(=O)N2C(C(=O)O)=C(S[C@@H]3CN[C@H](C(=O)Nc4cccc(C(=O)O)c4)C3)[C@H](C)[C@H]12 [ERT, ertapenem] |  |  |  |  |  |  |  |  | CACs detected by indirect TE disk test (Class A Carbapenemases): all; False positive results in indirect TE disk test (Class A Carbapenemases): no false positive results |
| CO[C@@]1(NC(=O)Cc2cccs2)C(=O)N2C(C(=O)O)=C(COC(N)=O)CS[C@@H]21 [FOX, cefoxitin] | N | N | N^n | N | N |  |  | N | MIC (Klebsiella spp. isolates; thirty Klebsiella spp. isolates): ≥ 16 µg/mL; MIC (Klebsiella spp. isolates; thirty isolates of Klebsiella spp., read-out: MIC): ≥ 16 µg/mL; Reagent disk test result (indentation of inhibition zone = antibiotic inactivation) (SHV-1): N; Reagent disk test result (indentation of inhibition zone = antibiotic inactivation) (SHV-4): N; Reagent disk test result (indentation of inhibition zone = antibiotic inactivation) (SHV-2): N |
| C[C@@H](O)[C@H]1C(=O)N2C(C(=O)O)=C(SCCN=CN)C[C@H]12 [IPM, imipenem] |  | N |  | N |  |  |  | N | MIC (Klebsiella spp. isolates; the one positive Klebsiella isolate producing a carbapenem-hydrolyzing enzyme, read-out: MIC): 64 µg/mL (≈ 214 µM); Reagent disk test result (indentation of inhibition zone = antibiotic inactivation) (FOX-1): N |
| C[C@@H](O)[C@H]1C(=O)N2C(C(=O)O)=C(S[C@@H]3CN[C@H](C(=O)N(C)C)C3)[C@H](C)[C@H]12 [MEM, meropenem] | N | N |  | N | N | N | WP? | N | Reagent disk test result (indentation of inhibition zone = antibiotic inactivation) (FOX-1): N; Reagent disk test result (indentation of inhibition zone = antibiotic inactivation) (LAT-1): N; Reagent disk test result (indentation of inhibition zone = antibiotic inactivation) (SHV-1): N; CACs detected by indirect TE disk test (Class A Carbapenemases): 19/21; False positive results in indirect TE disk test (Class A Carbapenemases): no false positive results; Reagent disk test result (indentation of inhibition zone = antibiotic inactivation) (SHV-4): N; Reagent disk test result (indentation of inhibition zone = antibiotic inactivation) (SHV-2): N |
| CCN1CCN(C(=O)N[C@@H](C(=O)N[C@@H]2C(=O)N3[C@@H]2SC(C)(C)[C@@H]3C(=O)O)c2ccccc2)C(=O)C1=O [Piperacillin] |  |  |  |  |  |  |  |  | Units of β-lactamase Activity (Nitrocefin as substrate) (E. coli V1104): 202 |
| NC(CO)(CO)CO [Tris] |  |  |  |  |  |  |  |  | Units of β-lactamase Activity (Nitrocefin as substrate) [1]: 41 |
| Cc1onc(-c2ccccc2Cl)c1C(=O)N[C@@H]1C(=O)N2[C@@H]1SC(C)(C)[C@@H]2C(=O)O [cloxacillin] |  |  |  |  |  |  |  |  | Inhibition of β-lactamases (pIs 7.2, 7.7 or ≧9.0) in IEF inhibitor overlay [2]: inhibited |
| Polymyxin B |  |  |  |  |  |  |  |  | Units of β-lactamase Activity (Cefaclor as substrate) (E. coli MISC 208; agent 10 μg/ml): 3.8; Units of β-lactamase Activity (Cefaclor as substrate) (E. coli MISC 208; agent 30 μg/ml): 15 |
| benzalkonium chloride |  |  |  |  |  |  |  |  | Units of β-lactamase Activity (Cefaclor as substrate) (E. coli MISC 208; agent 200 μg/ml): 16 |
